Read-outs that look alike come from different tables or passages of the source. Where a SMILES comes first, the peptide text is derived from it. The star is where a group is joined. Cbz = O=C(OCc1ccccc1)*
Key:
SARS-CoV-2 3CL-Pro = SARS-CoV-2 3CL-Pro (Severe acute respiratory syndrome coronavirus 2, UniProt P0DTD1); assay: biochemical; type: biochemical
[1] = oral drugs, no reference given; cited from earlier work
[2] = test system: SARS-CoV-2 cytopathic effect in Vero-E6 cells; type: cell-based
chymotrypsin = type: biochemical; conditions: 1 mM DTT
SARS-CoV-2 = type: cell-based; conditions: read-out: vRNA reduction / viral replication IC50 in Vero-E6 (qPCR)
[3] = test system: SARS-CoV-2 CPE in Caco-2 cells; conditions: cited from earlier work
MERS 3CL-Pro = MERS 3CL-Pro (Middle East respiratory syndrome-related coronavirus, UniProt K9N7C7); type: biochemical; conditions: read-out: IC50 MERS 3CL-Pro
Sequence of MERS 3CL-Pro (K9N7C7 3248-3553 limits assumed): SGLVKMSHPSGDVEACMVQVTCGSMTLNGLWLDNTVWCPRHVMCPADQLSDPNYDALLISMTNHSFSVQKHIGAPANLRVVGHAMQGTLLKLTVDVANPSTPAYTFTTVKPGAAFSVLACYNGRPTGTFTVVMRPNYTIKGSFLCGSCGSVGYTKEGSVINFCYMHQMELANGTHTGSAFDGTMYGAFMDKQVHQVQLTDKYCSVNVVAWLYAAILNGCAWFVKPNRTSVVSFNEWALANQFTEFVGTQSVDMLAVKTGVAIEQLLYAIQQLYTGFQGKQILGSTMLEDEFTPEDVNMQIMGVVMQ

deubiquitinating enzymes = conditions: read-out: IC50 values against several deubiquitinating enzymes; cited from earlier work
SARS-CoV 3CL-Pro = conditions: cited from earlier work
[4] = 20 μM compound, result in words
[5] = read-out: SARS-CoV-2 3CL-Pro IC50
[6] = read-out: HP 3CL-Pro IC50, hit profiling, without DTT
[7] = read-out: SARS-CoV-2 3CL-Pro IC50, without DTT, values given in nM

Oc1cc2c(cc1O)[C@H]1c3ccccc3CN[C@@H]1CC2 (racemic) [Dihydrexidine]
IC50 (SARS-CoV-2 3CL-Pro; HP 3CL-Pro IC50 (μM), hit profiling, without DTT): 1.1 µM

O=c1cc(-c2ccccc2)oc2cc(O)c(O)c(O)c12 [Baicalein]
effect of DTT (0 and 1 mM) on SARS-CoV-2 3CL-Pro inhibition (SARS-CoV-2 3CL-Pro; [4]): loss of inhibitory capacity

NC(CO)C(=O)NNCc1ccc(O)c(O)c1O (stereo not drawn) [Benserazide hdrochloride]
measured acute toxicity in rodents [1]: higher than 5 mg/kg

CC[C@H](CO)Nc1nc(NCc2ccc(-c3ccccn3)cc2)c2ncn(C(C)C)c2n1 [CR8-(R)]
anti-CPE effect in Vero-E6 phenotypic assay [2]: no anti-CPE effect | IC50 (SARS-CoV-2 3CL-Pro; read-out: HP 3CL-Pro IC50): 0.8 µM

CCCCCCNC(=O)n1cc(F)c(=O)[nH]c1=O [Carmofur]
Chymotrypsin Inhibition [%] +DTT (10 μM) (chymotrypsin): 14% | effect of DTT (0 and 1 mM) on SARS-CoV-2 3CL-Pro inhibition (SARS-CoV-2 3CL-Pro; [4]): insensitive to DTT

[H]/N=C(\N/C(=N/[H])NCCCCCCNC(=N)NC(=N)Nc1ccc(Cl)cc1)Nc1ccc(Cl)cc1 [Chlorhexidine]
effect of DTT (0 and 1 mM) on SARS-CoV-2 3CL-Pro inhibition (SARS-CoV-2 3CL-Pro; [4]): not an effective inhibitor

CCN(CC)C(=S)SSC(=S)N(CC)CC [Disulfiram]
effect of DTT (0 and 1 mM) on SARS-CoV-2 3CL-Pro inhibition (SARS-CoV-2 3CL-Pro; [4]): loss of inhibitory capacity

O=c1c2ccccc2[se]n1-c1ccccc1 [Ebselen]
effect of DTT (0 and 1 mM) on SARS-CoV-2 3CL-Pro inhibition (SARS-CoV-2 3CL-Pro): loss of inhibitory capacity

CC(C)C[C@@H](C=O)NC(=O)[C@H](CC(C)C)NC(=O)[C@H](CC(C)C)NC(=O)OCc1ccccc1 [MG-132] (Cbz-Leu-Leu-Leu-aldehyde)
IC50 (SARS-CoV-2): 0.1 µM | anti-CPE activity against SARS-CoV-2 in Caco-2 cells (words) [3]: active

O=c1c2cc(F)ccc2sn1-c1cc(S(=O)(=O)N2CCOCC2)ccc1N1CCOCC1 [ML345]
IC50 (SARS-CoV-2 3CL-Pro; [5]): 0.02 µM

Cc1ccc(C)c(-n2sc3cc(F)ccc3c2=O)c1 [MLS0315771]
IC50 (SARS-CoV-2 3CL-Pro; [5]): 0.02 µM

O=c1c(O)c(-c2cc(O)c(O)c(O)c2)oc2cc(O)cc(O)c12 [Myricetin]
anti-CPE effect in Vero-E6 phenotypic assay [2]: not reflected in anti-CPE

Oc1cc(CNC(=S)/C=C/c2cc(O)c(O)c(Br)c2)cc(O)c1O [NT-157]
IC50 (SARS-CoV-2 3CL-Pro; read-out: SARS-CoV-2 3CL-Pro IC50 (unit inferred)): 0.5 µM

Cc1ccc(-n2sc3ccccc3c2=O)cc1 [PBIT]
IC50 (SARS-CoV-2 3CL-Pro; [5]): 0.02 µM

O=c1c2ccccc2sn1-c1ccccc1 [PD08290]
IC50 (SARS-CoV-2 3CL-Pro; [5]): 0.02 µM

N#CSc1cc(SC#N)c(N)nc1N [PR-619]
IC50 (MERS 3CL-Pro): 2.3 µM | IC50 (deubiquitinating enzymes): 2 to 10 µM | anti-CPE effect in Vero-E6 phenotypic assay [2]: inactive | anti-CPE activity against SARS-CoV-2 in Caco-2 cells (words) [3]: inactive | IC50 (SARS-CoV-2 3CL-Pro; [6]): 0.4 µM

CCC(C)SSc1ncc[nH]1 (stereo not drawn) [PX-12]
IC50 (MERS 3CL-Pro): 7.6 µM

Cn1sc(=O)n(Cc2ccccc2)c1=O [TDZD-8]
effect of DTT (0 and 1 mM) on SARS-CoV-2 3CL-Pro inhibition (SARS-CoV-2 3CL-Pro; [4]): insensitive to DTT

Nc1nc2c(ncn2[C@@H]2O[C@H](CO)[C@@H](O)[C@H]2O)c(=S)[nH]1 [Thioguanosine]
anti-CPE activity against SARS-CoV-2 in Caco-2 cells (words) [3]: anti-SARS-CoV-2 CPE effects | anti-CPE activity against SARS-CoV-2 in Caco-2 cells (words) ([3]; listed as thioguanosine): active

O=c1sn(-c2cccc3ccccc23)c(=O)n1Cc1ccccc1 [Tideglusib]
effect of DTT (0 and 1 mM) on SARS-CoV-2 3CL-Pro inhibition (SARS-CoV-2 3CL-Pro; [4]): loss of inhibitory capacity

COC(=O)CC[C@H](NC(=O)[C@H](CC(=O)OC)NC(=O)OCc1ccccc1)C(=O)N[C@H](C(=O)N[C@@H](CC(=O)OC)C(=O)CF)C(C)C [Z-DEVD-FMK]
anti-CPE effect in Vero-E6 phenotypic assay [2]: did not influence CPE | fold higher potency than previously reported (SARS-CoV-2 3CL-Pro; own IC50 versus literature reports (Z-DEVD-FMK: ref 13)): 600 fold | IC50 (SARS-CoV-2 3CL-Pro; [7]): 0.01 µM

CN1CCc2cccc3c2[C@H]1Cc1ccc(O)c(O)c1-3 [apomorphine]
measured acute toxicity in rodents [1]: higher than 5 mg/kg

CC(C)(C)NC(=O)N[C@H](C(=O)N1C[C@H]2[C@@H]([C@H]1C(=O)NC(CC1CCC1)C(=O)C(N)=O)C2(C)C)C(C)(C)C (stereo partly drawn) [boceprevir]
inhibition at 20 µM (SARS-CoV-2 3CL-Pro; read-out: HC 3CL-Pro Inhibition [%] (20 μM), hit confirmation, triplicate, 20 μM compound): < 50%

CCCC[C@@H](C=O)NC(=O)[C@H](CC(C)C)NC(=O)OCc1ccccc1 [calpeptin]
effect of DTT (0 and 1 mM) on SARS-CoV-2 3CL-Pro inhibition (SARS-CoV-2 3CL-Pro; [4]): retained its inhibitory effect independent of DTT | effect of preincubation time (15, 30, 60 min) on inhibition (SARS-CoV-2 3CL-Pro; 25 °C, 20 μM, result in words): unchanged

O=C(O[C@@H]1Cc2c(O)cc(O)cc2O[C@@H]1c1cc(O)c(O)c(O)c1)c1cc(O)c(O)c(O)c1 [epigallocatechin gallate, (-)-Epigallocatechin gallate]
effect of DTT (0 and 1 mM) on SARS-CoV-2 3CL-Pro inhibition (SARS-CoV-2 3CL-Pro; [4]): did not show DTT dependence

CC(Cc1ccc(O)c(O)c1)C(C)Cc1ccc(O)c(O)c1 (stereo not drawn) [nordihydroguaiaretic acid]
IC50 (SARS-CoV-2 3CL-Pro; [6]): 2.59 µM

CC(=O)[O][Hg][c]1ccccc1 [phenylmercuric acetate]
IC50 (SARS-CoV-2 3CL-Pro; [7]): 0.01 µM

COCCCOc1ccnc(C[S+]([O-])c2nc3ccccc3[nH]2)c1C (stereo not drawn) [rabeprazole]
measured acute toxicity in rodents [1]: higher than 5 mg/kg

Oc1c(I)cc(I)c(O)c1I [riodoxol]
measured acute toxicity in rodents [1]: higher than 5 mg/kg

CCOC(=O)/C=C/[C@H](C[C@@H]1CCNC1=O)NC(=O)[C@@H](CC(=O)[C@@H](NC(=O)c1cc(C)on1)C(C)C)Cc1ccc(F)cc1 [rupintrivir]
activity against SARS-CoV 3CL-Pro (SARS-CoV 3CL-Pro): lacks activity

zinc pyrithione
IC50 (SARS-CoV 3CL-Pro; read-out: SARS-CoV 3CL-Pro IC50): 0.8 µM | effect of DTT (0 and 1 mM) on SARS-CoV-2 3CL-Pro inhibition (SARS-CoV-2 3CL-Pro): lost its inhibitory effects in the presence of DTT | effect of preincubation time (15, 30, 60 min) on inhibition (SARS-CoV-2 3CL-Pro): increased with preincubation time | fold more potent after preincubation at 37 °C versus 25 °C (SARS-CoV-2 3CL-Pro): 3 fold

— PMC7986981 (ACS Pharmacology & Translational Science, 2021)
